How the values were obtained:
[1] = test system: subjects with Parkinson disease; test: Rhinitis episodes in subjects with Parkinson disease on CEP-1347; format: in vivo, human
Text: In a study examining for association of the MAP3K9 gene and Allergic Rhinitis, deCODE found an association of certain MAP3K9 haplotypes (Table 7A) with Allergic Rhinits, with RR of approximately 1.4 for each allele carried (p<0.05). The risk was highest in a subgroup of subjects with Allergic Rhinitis alone (RR of 1.6 and p=0.005). Additional support that the MAP3K9 gene may play a role in Allergic Rhinits comes from a study conducted on subjects with Parkinson disease. […] Indeed, none of the subjects in the 50 mg dose group (n=198) developed rhinitis whereas 6 subjects in the placebo group (n=191) developed rhinitis (p=0.01).

asthma patients [2] = test: Phase II clinical study CEP-1347-201: methacholine challenge test (MCT; PC20 ANCOVA, survival analysis, model based EC50 analysis, AUC analysis); format: in vivo, human; conditions: for Percent of subjects with an increase in the AUC for the methacholine dose-response curve (AUCPost > AUCPre): after 8 weeks, placebo 33%; for median event-causing (20% drop in FEV1) methacholine concentration, PC20 survival analysis at week 8: placebo 3.0, log-rank p=0.02; for % Shift in EC50 (methacholine): model based analysis, vs placebo EC50; for Patients with Censored PC20 / Patients with PC20: week 8; for PC20 Change from Baseline at Week 8, LS Mean: ANCOVA, actual + imputed PC20
Experimental: A methacholine challenge test (MCT) was conducted at baseline and at the end of the 8-week treatment period in a subset of patients. The MCT test was not undertaken if, in the opinion of the investigator, MCT administration was contraindicated based on the patient's condition or the patient declined to participate. Patients that underwent a MCT were exposed to escalating doses of methacholine (methacholine administration typically leads to an acute decrease in lung function) and changes in lung function were measured by FEV1. The dose of methacholine was escalated until FEV1 decreased by 20% or the maximum MCT dose was reached. The dose of methacholine that produced a 20% decrease in FEV1 (PC20) was recorded. The change in FEV1 associated with each administration/dose of methacholine was recorded
The methacholine challenge test was conducted in a subset of patients at baseline and at the end of the 8-week treatment period.
In these cases the highest methacholine dose the patient received was assumed to be the PC20.
A 20% drop in FEV1 (PC20) was considered to be an event observation and the methacholine dose was treated as the “survival time” variable in the survival analysis. […] A Kaplan-Meier's product-limit estimate of the survival curve was generated; treatment effects were compared using a standard log-rank test; and baseline MCT information was ignored.
To make use of all methacholine-FEVI data a post hoc, model based analysis (i.e., nonlinear mixed effects model) was undertaken. The goal of the model based analysis was to estimate the magnitude of CEP-1347 effect on the patient's sensitivity to methacholine.
• the approach is more complex and less widely accepted compared to ANCOVA or survival analysis approaches • assumptions regarding the model structure are necessary • the suppressive effect of methacholine on lung functions was assumed to follow a classic inhibitory EMAX model, • the attenuating effect of CEP-1347 was assumed to shift an individual's EC50 or sensitivity to methacholine.
The model based analysis utilized 2202 FEV1 measurements following methacholine dosing. MCT data were available from 123 patients corresponding to approximately 17.9 observations per patient.
FEV1=E0*(1−EMAX*MET^γ/(EC50^γ+MET^γ))+ε(1) (Eq. 1)
Where, E0 was the FEV1 associated with a methacholine dose of 0, MET was the methacholine dose, EMAX was the maximum fractional suppression of FEV1 by methacholine, EC50 was the methacholine concentration at which 50% of maximal suppression was achieved, γ was the Hill coefficient, and ε (1) was the residual error term.
Inter-subject random effects were included on EMAX and EC50. […] Subsequently, the effect of CEP-1347 on the methacholine dose-response was added to the model. […] In other words, this model based approach asks the questions “Does CEP-1347 cause a patient to be less sensitive to methacholine (i.e., increase the individual patient's methacholine EC50)”. For the purposes of this model based analysis equation 2 describes the implementation of the CEP-1347 effect on the attenuation of the methacholine dose-response relationship:
Model selection was done on the basis of the log likelihood criterion (p<0.05) and visual inspection of goodness-of-fit plots. The difference in −2 times the log of the likelihood (−2LL) between a full and reduced model is asymptotically χ^2 distributed with degrees of freedom equal to the difference in number of parameters between the two models.

sE-Selectin = test: Phase II clinical study CEP-1347-201: sE-Selectin change from baseline; format: in vivo, human; conditions: for sE Selection Change from Baseline at Week 8, LS Mean: ANCOVA
Text: Results from an ANCOVA (analysis of covariance) including treatment group as a factor and the baseline value as a covariate are presented in Table 24.

asthma patients [3] = test: Phase II clinical study CEP-1347-201: spirometry FEV/FVC; format: in vivo, human; conditions: patients with near normal lung function at baseline
Text: The overall mean baseline percent predicted FEV1 (forced expiratory […] in 1 second) and FEV1 values for the study were 96% and 2.9 liters, respectively.

ICAM-1 = test: Phase II clinical study CEP-1347-201: additional biomarkers of inflammation; format: in vivo, human; conditions: prior to and 4 and 8 weeks after study drug administration; CEP-1347 vs placebo groups
Experimental: (§1) Biomarkers of inflammation were measured prior to and 4 and 8 weeks after study drug administration.

MCP-1 = test: as above; format: in vivo, human; conditions: prior to and 4 and 8 weeks after study drug administration; CEP-1347 vs placebo groups
Experimental: as §1

VCAM-1 = test: as above; format: in vivo, human; conditions: prior to and 4 and 8 weeks after study drug administration; CEP-1347 vs placebo groups
Experimental: as §1

VEGF = test: as above; format: in vivo, human; conditions: prior to and 4 and 8 weeks after study drug administration; CEP-1347 vs placebo groups
Experimental: as §1

MLK1 = MLK1 (Homo sapiens, UniProt P80192); conditions: MLK active site; cited from earlier work
Sequence of MLK1 (P80192 whole entry): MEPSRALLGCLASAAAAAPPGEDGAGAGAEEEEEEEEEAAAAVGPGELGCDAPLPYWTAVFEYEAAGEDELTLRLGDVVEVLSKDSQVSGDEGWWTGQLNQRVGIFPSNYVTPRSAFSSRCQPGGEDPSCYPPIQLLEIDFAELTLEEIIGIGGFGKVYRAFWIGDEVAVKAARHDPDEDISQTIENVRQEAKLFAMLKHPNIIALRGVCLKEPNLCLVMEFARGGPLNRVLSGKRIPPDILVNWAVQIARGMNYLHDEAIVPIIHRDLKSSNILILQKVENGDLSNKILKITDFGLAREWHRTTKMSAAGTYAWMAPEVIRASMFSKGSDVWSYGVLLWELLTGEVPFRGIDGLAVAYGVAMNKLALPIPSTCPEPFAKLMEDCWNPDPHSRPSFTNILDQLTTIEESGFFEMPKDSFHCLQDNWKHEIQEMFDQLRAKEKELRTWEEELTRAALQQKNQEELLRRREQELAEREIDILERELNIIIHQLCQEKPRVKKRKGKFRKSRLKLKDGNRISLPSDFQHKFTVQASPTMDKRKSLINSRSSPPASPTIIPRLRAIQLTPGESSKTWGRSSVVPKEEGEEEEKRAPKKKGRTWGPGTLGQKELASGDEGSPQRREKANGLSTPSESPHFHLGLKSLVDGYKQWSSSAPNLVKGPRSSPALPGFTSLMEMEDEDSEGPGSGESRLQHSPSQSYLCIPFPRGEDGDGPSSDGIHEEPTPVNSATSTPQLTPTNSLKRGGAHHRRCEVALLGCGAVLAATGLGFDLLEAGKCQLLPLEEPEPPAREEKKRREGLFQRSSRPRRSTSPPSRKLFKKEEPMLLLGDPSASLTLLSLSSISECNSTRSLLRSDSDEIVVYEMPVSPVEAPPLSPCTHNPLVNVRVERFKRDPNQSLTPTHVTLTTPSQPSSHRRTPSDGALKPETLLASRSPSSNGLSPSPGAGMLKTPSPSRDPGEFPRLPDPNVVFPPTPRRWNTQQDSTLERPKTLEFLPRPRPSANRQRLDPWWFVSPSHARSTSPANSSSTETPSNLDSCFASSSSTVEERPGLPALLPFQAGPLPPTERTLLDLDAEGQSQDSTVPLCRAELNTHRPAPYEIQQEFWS

IL-1β = conditions: standard in vitro pharmacological testing procedures (WO 97/49406); cited from earlier work
mice = conditions: cited from earlier work
asthma patients [4] = test: Phase II clinical study CEP-1347-201: peak expiratory flow rate (PEFR; ANCOVA at week 8 and longitudinal model of daily PEFR); format: in vivo, human; conditions: p=0.15; dose-response shape very similar to morning PEFR

CCSCc1ccc2c(c1)c1c3c(c4c5cc(CSCC)ccc5n5c4c1n2C1CC(O)(C(=O)OC)C5(C)O1)CNC3=O (centres unmarked) [CEP-1347]
subjects who developed rhinitis ([1]; 50 mg dose group (n=198), 6 subjects in placebo group (n=191), p=0.01): none
AR episodes (rhinitis episodes) ([1]; 50 mg twice daily (bid), N=198, placebo 6 (N=191), p = 0.01): 0
Percent of subjects with an increase in the AUC for the methacholine dose-response curve (AUCPost > AUCPre) (asthma patients [2]; 10 mg BID, Cochran-Mantel-Haenzel p = 0.075, logistic regression p = 0.039): 55%
median event-causing (20% drop in FEV1) methacholine concentration, PC20 survival analysis at week 8 (asthma patients [2]; 10 mg BID, 95% confidence interval (0.85,+∞)): 3.7 µg/mL
% Shift in EC50 (methacholine) (asthma patients [2]; 10 mg BID): −40%
Patients with Censored PC20 (asthma patients [2]; 10 mg BID): 11 (39%) n (% of treatment group)
Patients with PC20 (asthma patients [2]; 10 mg BID): 17 (61%) n (% of treatment group)
Percent of subjects with an increase in the AUC for the methacholine dose-response curve (AUCPost > AUCPre) (asthma patients [2]; 25 mg BID): 58%
median event-causing (20% drop in FEV1) methacholine concentration, PC20 survival analysis at week 8 (asthma patients [2]; 25 mg BID, 95% confidence interval (1.87,+∞)): 6.8 µg/mL
% Shift in EC50 (methacholine) (asthma patients [2]; 25 mg BID): 21%
Patients with Censored PC20 (asthma patients [2]; 25 mg BID): 8 (47%) n (% of treatment group)
Patients with PC20 (asthma patients [2]; 25 mg BID): 9 (53%) n (% of treatment group)
PC20 change from baseline at week 8 (ANCOVA) (asthma patients [2]; 50 mg BID group): seemingly worsened
Percent of subjects with an increase in the AUC for the methacholine dose-response curve (AUCPost > AUCPre) (asthma patients [2]; 50 mg BID): 59%
median event-causing (20% drop in FEV1) methacholine concentration, PC20 survival analysis at week 8 (asthma patients [2]; 50 mg BID, 95% confidence interval (0.6, 3.0)): 0.85 µg/mL
% Shift in EC50 (methacholine) (asthma patients [2]; 50 mg BID): 43%
increase of the methacholine EC50 (shift of methacholine-FEV1 dose-response curve to the right), model based analysis (asthma patients [2]; 50 mg BID, nonlinear mixed effects model, effect size estimates imprecise): 43%
Patients with Censored PC20 (asthma patients [2]; 50 mg BID): 3 (14%) n (% of treatment group)
Patients with PC20 (asthma patients [2]; 50 mg BID): 18 (86%) n (% of treatment group)
PC20 Change from Baseline at Week 8, LS Mean (asthma patients [2]; CEP-1347 10 mg BID, p .66): 1.00
PC20 Change from Baseline at Week 8, LS Mean (asthma patients [2]; CEP-1347 25 mg BID, p .77): 1.84
PC20 Change from Baseline at Week 8, LS Mean (asthma patients [2]; CEP-1347 50 mg BID, p .02): −1.18
Summary of MCT analyses: ANCOVA, Results and Comments (asthma patients [2]; PC20 at baseline and week 8): Not significant.
PC20 change from baseline at week 8 (ANCOVA) (asthma patients [2]; all CEP-1347 groups vs placebo, PC20 imputed as highest methacholine dose where no 20% FEV1 decline): No clinical or statistically significant improvement
effect on methacholine effects on FEV1, model based analysis (asthma patients [2]; all doses, full vs reduced model p=0.02): dose related attenuation
sE Selection Change from Baseline at Week 8, LS Mean (sE-Selectin; 10 mg BID, p 0.12): −1.49
sE Selection Change from Baseline at Week 8, LS Mean (sE-Selectin; 25 mg BID, p 0.005): −3.18
sE Selection Change from Baseline at Week 8, LS Mean (sE-Selectin; 50 mg BID, p 0.26): −1.00
sE-Selection levels (sE-Selectin; CEP-1347 treated groups compared to placebo, p=0.02): significantly lower
FEV/FVC (ANCOVA) (asthma patients [3]): no clear treatment related trends or statistically significant changes
concentration of ICAM-1 (ICAM-1): No differences
concentration of MCP-1 (MCP-1): No differences
concentration of VCAM-1 (VCAM-1): No differences
concentration of VEGF (VEGF): No differences
kinetics of inhibition of MLK kinases, mode of action (MLK1): competitive with the binding of adenosine triphosphate
production of IL-1β by cultured cells (IL-1β): inhibit the production
protection from LPS-induced death (mice): provides protection
daily evening PEFR, CEP-1347 effect in longitudinal model (asthma patients [4]): borderline significant

From patent US20080146540A1, “Methods of diagnosis and treatment for asthma, allergic rhinitis and other respiratory diseases based on haplotype association” (priority 2003, published 2008)
